Reference: patent US20070116781A1, “Hydrogen Cyanamide Pesticide Formulations” (priority 2005, published 2007)

Assays:
[1] = tested on: morningglory; experiment: Herbicidal activity, phosphate-free cyanamide and propionic acid, post-emergence, uncovered pots; type: in vivo, Ipomoea spp.; conditions: for Weeds Per Pot: Morningglory: cyanamide 150 mg/kg soil
From the text: (§1) The procedures in this example differed from those of Example 2, however, by the use of hydrogen cyanamide crystals free of phosphate ion to prepare the aqueous hydrogen cyanamide solution, by the use of post-emergence application, and by the omission of any covering of the pots during any part of the test. Observations were made for total weed growth, and individual observations were also made for yellow nutsedge, crabgrass, sicklepod, and momingglory. Stock solutions of hydrogen cyanamide at 1.25% by weight and propionic acid at 5.0% by weight, both in water, were prepared as before, except that the hydrogen cyanamide solution, as noted above, was prepared by dissolving hydrogen cyanamide crystals in water in the absence of phosphate ion. […] The weeds were allowed to grow for three weeks before the treatment chemicals were applied. […] Data analyses were performed in the same manner as Examples 1 and 2. Table IX lists the results in weeds per pot for all weeds, Table X for yellow nutsedge, Table XI for crabgrass, Table XII for sicklepod, and Table XIII for morningglory, all both with propionic acid alone at various application rates and with […]

[2] = tested on: combined weed species; experiment: Herbicidal activity, cyanamide and citric acid, pre-emergence, covered pots; type: in vivo
Protocol: The weeds used in these tests were grown from a standard weed seed pack of common annual and perennial weeds representing an extreme weed situation. The weeds included crabgrass (Digitaria sanguinalis), yellow nutsedge (Cyperus esculentus), […] (Ipomoea spp.), pigweed (Amaranthus spp.), and other annual weeds. Observations of the effects on the weed population as a whole were made, and individual observations were made for crabgrass, yellow nutsedge, sicklepod, morningglory, and pigweed. Stock solutions of hydrogen cyanamide at 1.25% by weight and citric acid at 5.0% by weight, both in water, were prepared, the hydrogen cyanamide from a phosphate-buffered 50% aqueous solution. […] Data analyses were performed in the same manner as Example 1. The results expressed in weeds per pot are listed in Table XIV for all weeds, Table XV for crabgrass, Table XVI for yellow nutsedge, Table XVII for sicklepod, Table XVIII for morningglory, and Table XIX for pigweed, all at various application rates for hydrogen cyanamide, with and without citric acid.

[3] = tested on: reniform nematodes; experiment: Nematicidal activity in covered pots of naturally infested silt loam, soybean planted after 12 days; type: in vivo, Rotylenchulus reniformus
Protocol: (§2) In this study, the soil was naturally infested with four species of nematodes, two of which were deleterious and two beneficial, and observations were made of both the nematode survival and the growth of the soybean plants.
(§3) Stock solutions of hydrogen cyanamide at 1.0% by weight and propionic acid at 5.0% by weight, both in water, were prepared, the hydrogen cyanamide from a phosphate-buffered 50% aqueous solution. Planting pots measuring 10 cm in diameter, each containing 1 kg of soil, were used. The soil was silt loam from a cotton field, pH 6.2, CEC<10 meq/100 g soil, organic matter<1.0%. The treatment chemicals were combined in various dilutions such that 100 mL of the combined dilutions contained the desired amount of each chemical for each test. The combined dilutions were then applied to the soil surface in each pot, at 100 mL of combined dilution per pot. The dilutions were selected to achieve target application rates expressed in milligrams of the treatment chemical per kilogram of soil, with 1 milligram of treatment chemical per kilogram of soil being approximately equal to 2 kilograms of the chemical per hectare of soil or 2 pounds of the chemical per acre of soil.
(§4) Immediately after the treatment chemicals were applied, each pot was covered by a thick (1.5 mil), clear, low-density polyethylene bag. After twelve days, the bags were removed and soil samples were taken from each pot for nematological analysis by the salad bowl technique of Rodriguez-Kabana, R., and M. H. Pope, Nematropica, 11: 175-186 (1981). The results of these analyses are listed in Table I as pre-plant test results. The results for the two deleterious nematodes are also shown as plots of the number of nematodes vs. the hydrogen cyanamide application rate in FIGS. 1 and 2.
(§5) After the polyethylene bags were removed, each pot was planted with Hutcheson soybean seeds at 5 seeds per pot, and the seeds were allowed to germinate and the plants to grow for 45 days. The resulting plants were then removed from the pots, the root systems were washed, and the number of plants in each pot was determined. The weights of both fresh shoots and roots were also determined as well as the shoot height and the relative health of the root system, using a subjective index. Soil samples were also collected, and the soil and roots were incubated to determine nematode populations. Treatments were arranged in randomized complete block design with seven replications per treatment, and statistical evaluation of the data was performed with analyses of variance (ANOVA) and standard regression procedures. Fischer's Least Significant Difference at p 0.05 was calculated when appropriate. The results of these tests are listed as final test results in Tables II, III, and IV, with nematode populations in the soil listed in Table II, the nematode populations in the root systems in Table III, and the plant and root parameters of the soybean shoots in Table IV.

[4] = tested on: sicklepod; experiment: Herbicidal activity, phosphate-free cyanamide and propionic acid, post-emergence, uncovered pots; type: in vivo, Senna obtusifolia; conditions: for Weeds Per Pot: Sicklepod: cyanamide 150 mg/kg soil
From the text: as §1

[5] = tested on: microbivorous nematodes; experiment: Effect on beneficial nematodes in covered pots of silt loam; type: in vivo
Protocol: as §2, §3, §4, §5

[6] = hydrogen cyanamide 125 mg/kg of soil alone, all intervals
[7] = 12 d after treatment, pre-plant, cyanamide 20 mg/kg soil
[8] = 12 d after treatment, pre-plant, cyanamide 40 mg/kg soil
[9] = 12 d after treatment, pre-plant, cyanamide 60 mg/kg soil
[10] = 12 d after treatment, pre-plant, cyanamide 80 mg/kg soil
[11] = 12 d after treatment, pre-plant, cyanamide 120 mg/kg soil
[12] = 57 d after treatment, 45 d after planting, cyanamide 20 mg/kg soil
[13] = 57 d after treatment, 45 d after planting, cyanamide 40 mg/kg soil
[14] = 57 d after treatment, 45 d after planting, cyanamide 60 mg/kg soil
[15] = 57 d after treatment, 45 d after planting, cyanamide 80 mg/kg soil
[16] = 57 d after treatment, 45 d after planting, cyanamide 120 mg/kg soil
[17] = 57 d after treatment, cyanamide 20 mg/kg soil
[18] = 57 d after treatment, cyanamide 40 mg/kg soil
[19] = 57 d after treatment, cyanamide 60 mg/kg soil
[20] = 57 d after treatment, cyanamide 80 mg/kg soil
[21] = 57 d after treatment, cyanamide 120 mg/kg soil

Compound: N#CN [Cyanamide, hydrogen cyanamide]
- Weeds Per Pot: Morningglory ([1]; 6 d after treatment): 3.3
- Weeds Per Pot: Morningglory ([1]; 13 d after treatment): 2.7
- Weeds Per Pot: Morningglory ([1]; 20 d after treatment): 2.9
- Morningglory weeds per pot [1, 6]: about three or fewer momingglory weeds per pot
- Weeds Per Pot (combined weed species) ([2]; 9 d after treatment, cyanamide 50 mg/kg soil): 15.0
- Weeds Per Pot (combined weed species) ([2]; 9 d after treatment, cyanamide 100 mg/kg soil): 1.6
- Weeds Per Pot (combined weed species) ([2]; 9 d after treatment, cyanamide 150 mg/kg soil): 0.2
- Weeds Per Pot (combined weed species) ([2]; 9 d after treatment, cyanamide 200 mg/kg soil): 0
- Weeds Per Pot (combined weed species) ([2]; 9 d after treatment, cyanamide 250 mg/kg soil): 0
- Weeds Per Pot (combined weed species) ([2]; 13 d after treatment, cyanamide 50 mg/kg soil): 14.4
- Weeds Per Pot (combined weed species) ([2]; 13 d after treatment, cyanamide 100 mg/kg soil): 14.0
- Weeds Per Pot (combined weed species) ([2]; 13 d after treatment, cyanamide 150 mg/kg soil): 0.9
- Weeds Per Pot (combined weed species) ([2]; 13 d after treatment, cyanamide 200 mg/kg soil): 0
- Weeds Per Pot (combined weed species) ([2]; 13 d after treatment, cyanamide 250 mg/kg soil): 0
- Weeds Per Pot (combined weed species) ([2]; 19 d after treatment, cyanamide 50 mg/kg soil): 11.2
- Weeds Per Pot (combined weed species) ([2]; 19 d after treatment, cyanamide 100 mg/kg soil): 4.8
- Weeds Per Pot (combined weed species) ([2]; 19 d after treatment, cyanamide 150 mg/kg soil): 1.6
- Weeds Per Pot (combined weed species) ([2]; 19 d after treatment, cyanamide 200 mg/kg soil): 0.3
- Weeds Per Pot (combined weed species) ([2]; 19 d after treatment, cyanamide 250 mg/kg soil): 0
- Weeds Per Pot (combined weed species) ([2]; 26 d after treatment, cyanamide 50 mg/kg soil): 21.5
- Weeds Per Pot (combined weed species) ([2]; 26 d after treatment, cyanamide 100 mg/kg soil): 10.0
- Weeds Per Pot (combined weed species) ([2]; 26 d after treatment, cyanamide 150 mg/kg soil): 3.0
- Weeds Per Pot (combined weed species) ([2]; 26 d after treatment, cyanamide 200 mg/kg soil): 0.8
- Weeds Per Pot (combined weed species) ([2]; 26 d after treatment, cyanamide 250 mg/kg soil): 0.8
- Surviving Nematodes: Reniform [3, 7]: 274 per 100 mL of soil
- Surviving Nematodes: Reniform [3, 8]: 191 per 100 mL of soil
- Surviving Nematodes: Reniform [3, 9]: 102 per 100 mL of soil
- Surviving Nematodes: Reniform [3, 10]: 120 per 100 mL of soil
- Surviving Nematodes: Reniform [3, 11]: 16 per 100 mL of soil
- Surviving Nematodes: Reniform [3, 12]: 240 per 100 mL of soil
- Surviving Nematodes: Reniform [3, 13]: 190 per 100 mL of soil
- Surviving Nematodes: Reniform [3, 14]: 167 per 100 mL of soil
- Surviving Nematodes: Reniform [3, 15]: 354 per 100 mL of soil
- Surviving Nematodes: Reniform [3, 16]: 95 per 100 mL of soil
- Surviving Nematodes in Root System: Reniform [3, 17]: 25.7 Per Pot
- Surviving Nematodes in Root System: Reniform [3, 18]: 9.6 Per Pot
- Surviving Nematodes in Root System: Reniform [3, 19]: 13.4 Per Pot
- Surviving Nematodes in Root System: Reniform [3, 20]: 19.4 Per Pot
- Surviving Nematodes in Root System: Reniform [3, 21]: 4.3 Per Pot
- Weeds Per Pot: Sicklepod ([4]; 6 d after treatment): 0.6
- Weeds Per Pot: Sicklepod ([4]; 13 d after treatment): 1.4
- Weeds Per Pot: Sicklepod ([4]; 20 d after treatment): 1
- Sicklepod weeds per pot [4, 6]: about one or fewer sicklepod weeds per pot
- Surviving Nematodes: Microbivorous [5, 7]: 92 per 100 mL of soil
- Surviving Nematodes: Microbivorous [5, 8]: 86 per 100 mL of soil
- Surviving Nematodes: Microbivorous [5, 9]: 96 per 100 mL of soil
- Surviving Nematodes: Microbivorous [5, 10]: 144 per 100 mL of soil
- Surviving Nematodes: Microbivorous [5, 11]: 75 per 100 mL of soil
- Surviving Nematodes: Microbivorous [5, 12]: 132 per 100 mL of soil
- Surviving Nematodes: Microbivorous [5, 13]: 121 per 100 mL of soil
- Surviving Nematodes: Microbivorous [5, 14]: 78 per 100 mL of soil
- Surviving Nematodes: Microbivorous [5, 15]: 99 per 100 mL of soil
- Surviving Nematodes: Microbivorous [5, 16]: 52 per 100 mL of soil
- Surviving Nematodes in Root System: Microbivorous [5, 17]: 176.9 Per Pot
- Surviving Nematodes in Root System: Microbivorous [5, 18]: 126.9 Per Pot
- Surviving Nematodes in Root System: Microbivorous [5, 19]: 118 Per Pot
- Surviving Nematodes in Root System: Microbivorous [5, 20]: 113 Per Pot
- Surviving Nematodes in Root System: Microbivorous [5, 21]: 123 Per Pot
